Results published in patent publication US4801596A, “Nitroxy amino propanols for treating heart and circulatory diseases” (Boehringer Mannheim GmbH, priority 1984, dated 1989).
Structures can show the parent of a compound that is named as a salt.

Key:
[1] = tested on: β-receptor; assay: β-blocking effectiveness: inhibition of isoprenaline-induced increase of the frequency in rabbits; type: in vivo, rabbit; conditions: i.v., isoprenaline 1 mcg/kg i.v.
[2] = tested on: rat livers; assay: denitration rate in re-perfused rat livers (nitrate-like action); conditions: rat liver re-perfused 4 min, equimolar 5×10^-5 M/l; freed NO2 determined in the perfusate; high values = fast denitration

| SMILES | ID 50 fcor (dose causing 50% inhibition of the increase of the frequency through isoprenaline) [1] | Vrel (denitration rate in relation to isosorbide-5-mononitrate) [2] |
| --- | --- | --- |
| CC(C)(C)NCC(O)COc1ccc(NC(=O)[C@H]2CC[C@H](O[N+](=O)[O-])CC2)cc1 (relative stereo) [2 (e), 1-[4-[[(t-4-nitroxy)-cyclohexyl]-r-1-carbonylamino]]-phenoxy-3-tert.-butylaminopropan-2-ol hydrochloride] | 4 006 mcg/kg | 0.95 |
| CC(C)(C)NCC(O)COc1ccc(NC(=O)C[C@@H]2CCCC[C@H]2O[N+](=O)[O-])cc1 (relative stereo) [2 (g), 1-[4-[[(t-2-nitroxy)-cyclohexyl]-r-1-methylcarbonylamino] ]-phenoxy-3-tert.-butylaminopropan-2-ol hydrochloride] | 4 158 mcg/kg | 0.97 |
| CC(C)(C)NCC(O)COc1ccc(NC(=O)[C@H]2CC[C@H](O[N+](=O)[O-])CC2)cc1C#N (relative stereo) [4 (c), 1-[2-cyano-4-[[(t-4-nitroxy)-cyclohexyl]-r-1-carbonylamino]]-phenoxy-3-tert.-butylaminopropan-2-ol benzoate] |  | 1.95 |
| CC(=O)c1cc(NC(=O)[C@H]2CC[C@H](O[N+](=O)[O-])CC2)ccc1OCC(O)CNC(C)(C)C (relative stereo) [6 (c), 1-[2-methylcarbonyl-4-[[(t-4-nitroxy)-cyclohexyl]-r-1-carbonylamino]]-phenoxy-3-tert.-butylaminopropan-2-ol hydrochloride] | 2 273 mcg/kg | 1.34 |
| CC(C)(C)NCC(O)COc1ccc(CC(=O)N[C@@H]2CCCC[C@H]2O[N+](=O)[O-])cc1 (relative stereo) [9 (d), trans-1-[4-[(2-nitroxycyclohexyl)-amino]-carbonylmethyl]-phenoxy-3-tert.-butylaminopropan-2-ol] |  | 1.06 |
| CC(C)(C)NCC(O)COc1ccc(NC(=O)CCCCO[N+](=O)[O-])cc1 (centres unmarked) [2 (a), 1-[4-(4-nitroxybutyl)-carbonylamino]-phenoxy-3-tert.-butylaminopropan-2-ol fumarate] |  | 0.65 |
| CC(C)(C)NCC(O)COc1ccc(NC(=O)C(C)(C)CO[N+](=O)[O-])cc1 (centres unmarked) [2 (b), 1-[4-(2-methyl-1-nitroxy-2-propyl)-carbonylamino]-phenoxy-3-tert.-butylaminopropan-2-ol hydrochloride] | 4 164 mcg/kg | 0.68 |
| CC(C)(C)NCC(O)COc1ccc(NC(=O)CCCO[N+](=O)[O-])cc1C#N (centres unmarked) [4 (a), 1-[2-cyano-4-(3-nitroxypropyl)-carbonylamino]-phenoxy-3-tert.-butylaminopropan-2-ol hydrochloride] | 180 µg/kg | 0.74 |
| CC(=O)c1cc(NC(=O)CCCO[N+](=O)[O-])ccc1OCC(O)CNC(C)(C)C (centres unmarked) [6 (a), 1-[2-methylcarbonyl-4-(3-nitroxypropyl)-carbonylamino]-phenoxy-3-tert.-butylaminopropan-2-ol fumarate] | 886 µg/kg | 0.51 |
| CC(CNC(=O)Cc1ccc(OCC(O)CNC(C)(C)C)cc1)O[N+](=O)[O-] (centres unmarked) [9 (a), 1-[4-[(2-nitroxypropyl)-amino]-carbonylmethyl]-phenoxy-3-tert.-butylaminopropan-2-ol hemifumarate] | 3 147 mcg/kg | 0.34 |
| CN(CC(C)(C)CO[N+](=O)[O-])C(=O)Cc1ccc(OCC(O)CNC(C)(C)C)cc1 (centres unmarked) [9 (c), 1-[4-[[N--(2,2-dimethyl-3-nitroxypropyl)-N--methyl]-amino]-carbonylmethyl]-phenoxy-3-tert.-butylaminopropan-2-ol fumarate] |  | 1.63 |
| CC(C)(C)NCC(O)COc1ccc(CC(=O)N2CCC(O[N+](=O)[O-])CC2)cc1 (centres unmarked) [9 (f), 1-[4-(4-nitroxy-1-piperidino)-carbonylmethyl]-phenoxy-3-tert.-butylaminopropan-2-ol fumarate] |  | 1.23 |
| CC(C)(C)NCC(O)COc1ccc(CC(=O)N2CCCC(CO[N+](=O)[O-])C2)cc1 (centres unmarked) [9 (g), 1-[4-(3-nitroxymethyl-1-piperidino)-carbonylmethyl]-phenoxy-3-tert.-butylaminopropan-2-ol fumarate] |  | 1.69 |
| CC(C)(C)NCC(O)COc1ccc(CC(=O)N2CCC(CO[N+](=O)[O-])CC2)cc1 (centres unmarked) [9 (h), 1-[4-(4-nitroxymethyl-1-piperidino)-carbonylmethyl]-phenoxy-3-tert.-butylaminopropan-2-ol fumarate] | 1 207 mcg/kg | 1.06 |
| C#CC(C)(C)NCC(O)COc1ccc(CC(=O)N2CCC(CO[N+](=O)[O-])CC2)cc1 (centres unmarked) [9 (j), 3-(2-methyl-3-butyn-2-yl)-amino-1-[4-(4-nitroxymethyl-1-piperidino)-carbonylmethyl]-phenoxypropan-2-ol fumarate] |  | 1.94 |
| CC(C)(C)NCC(O)COc1ccc(NC(=O)CCCO[N+](=O)[O-])cc1 (centres unmarked) [Example 1, 1-[4-(3-Nitroxypropyl)-carbonylamino]-phenoxy-3-tert.-butylaminopropan-2-olhydrochloride] | 2 326 mcg/kg | 0.77 |
| CCOC(=O)c1cc(NC(=O)CCCO[N+](=O)[O-])ccc1OCC(O)CNC(C)(C)C (centres unmarked) [Example 7, 1-[2-Ethoxycarbonyl-4-(3-nitroxypropyl)-carbonylamino]phenoxy-3-tert.-butylaminopropan-2-ol cyclamate] | 1 619 mcg/kg | 1.72 |
| CC(C)(C)NCC(O)COc1ccc(CC(=O)NCCCO[N+](=O)[O-])cc1 (centres unmarked) [Example 8, 1-[4-[(3-Nitroxypropyl)-amino]-carbonylmethyl]-phenoxy-3-tert.-butylaminopropan-2-ol fumarate] |  | 0.48 |
| O=[N+]([O-])O[C@@H]1CO[C@H]2[C@@H]1OC[C@@H]2O [Isosorbide-5-mononitrate, isosorbide-5-mononitrate, reference compound] |  | 0.86 |
